Read-outs that look alike come from different tables or passages of the source.

One data set relates to Ovarian (MRI-H-207) line. Format: in vivo, human. The settings on record: for T/C % / toxic deaths: days of treatment 0.7. An excerpt: (§1) The xenograft experiments have been carried by Dr. H. H. Fiebig of the University of Freiburg [Lung-NSCLC (LXGF) line, Renal line, Breast line; See: H. H. Fiebig et al., Behring Inst. Mitt., 74 343] and by Dr. E. Boven of the Free University Hospital Amsterdam [Ovarian (MRI-H-207) line; See: E. Boven et al., Cancer Res., 45, 86 (1985) and E. Boven et al., Eur. J. Clin. Oncol., 21, 1253 (1985)].
Mice: C57B1 athymic (nu/nu) female mice, 8 to 10 weeks of age were used for s.c. bilateral implantation of tumour fragments 2 mm diameter.
Treatment: E.O. 9 was dissolved in saline at a concentration of 0.5 mg/ml prior to administration. Drug doses and schedules were derived from studies in experimental murine tumour systems and from orientation studies in non-tumour-bearing nude mice. Treatment was started i.v. when tumours measured 50-150 mm^3. After randomization a group of 6-7 tumour-bearing mice was treated and a group of 5-6 tumour-bearing mice served as control.
Evaluation of efficacy: Tumours were measured twice weekly in three dimensions. Efficacy was expressed as the mean of relative tumour volume in treated animals vs. that in control animals×100 (% T/C). The optimal value was calculated within 35 days after the last injection. Toxic death (dead mice within two weeks after the last injection) were excluded from the evaluation.
MRI-H-207: An undifferentiated adenocarcinoma kindly provided by Dr. A. E. Bogden, Worcester, Mass, with a doubling time of 3-5 days.

In the next data set the test system is Lung-NSCLC (LXFG) line. Put plainly: Human tumour xenograft in nude mice: lung. As to conditions: i.v. days 14 and 21, 4 and 6 mg/kg. The format is in vivo.
From the text: (§2) Based on the results obtained during the in vitro experiments indoloquinone E.O. 9 was selected for an extended in vivo study. The activity of this compound has been determined in four human tumour xenografts transplanted in nude mice.
as §1
The tumour was transplanted s.c. and E.O. 9 was administrated i.v. on days 14 and 21 after transplantation at a dose of 4 and 6 mg/kg.
For orientation: A xenograft is tissue or cells of one species grown in another, often human tumour cells in immunodeficient mice.

Another data set deals with Breast line. Put plainly: Human tumour xenograft in nude mice: breast. As to conditions: i.v. days 46 and 53, 4 and 6 mg/kg. Format: in vivo.
From the text: as §2, §1
The tumour was transplanted s.c. and E.O. 9 was administrated i.v. on days 46 and 53 after transplantation at a dose of 4 and 6 mg/kg.

With `Cn1c(/C=C/CO)c(CO)c2c1C(=O)C=C(N1CC1)C2=O` [E.O. 9, 5-Aziridino-3-hydroxymethyl-1-methyl-2-[1H-indole-4,7-dione]prop-β-en-α-ol], the values for the T/C % with Ovarian (MRI-H-207) line (5 mg/kg) and in the data set on Ovarian (MRI-H-207) line (6 mg/kg) were 3.8% and 2.4%, respectively. For the same compound, the toxic deaths in the data set with Ovarian (MRI-H-207) line (5 mg/kg) is given as 0/7; with Ovarian (MRI-H-207) line (6 mg/kg) it was 1/7. Besides, the optimal growth inhibition with Ovarian (MRI-H-207) line (5 and 6 mg/kg q8d×2) came to 98%; with Lung-NSCLC (LXFG) line, 42%; with Breast line, 51%. This compound also displayed a specific growth delay in the data set with Lung-NSCLC (LXFG) line of 1.03.

(Values after patent US5079257A, “Indoloquinone compounds” (priority 1986, dated 1992).)
